Test results taken from article PMC7556876, “POMK regulates dystroglycan function via LARGE1-mediated elongation of matriglycan” (eLife, 2020).

Molecular target: T1, POMK (Protein O-Mannose Kinase) (Danio rerio, UniProt Q5U3W1)
T1 construct: Purified Danio rerio POMK
Assay: ligand-observed 1D 1H NMR titration (Man H1 peak intensity)
Assay type: binding

T1 sequence (Q5U3W1 whole entry): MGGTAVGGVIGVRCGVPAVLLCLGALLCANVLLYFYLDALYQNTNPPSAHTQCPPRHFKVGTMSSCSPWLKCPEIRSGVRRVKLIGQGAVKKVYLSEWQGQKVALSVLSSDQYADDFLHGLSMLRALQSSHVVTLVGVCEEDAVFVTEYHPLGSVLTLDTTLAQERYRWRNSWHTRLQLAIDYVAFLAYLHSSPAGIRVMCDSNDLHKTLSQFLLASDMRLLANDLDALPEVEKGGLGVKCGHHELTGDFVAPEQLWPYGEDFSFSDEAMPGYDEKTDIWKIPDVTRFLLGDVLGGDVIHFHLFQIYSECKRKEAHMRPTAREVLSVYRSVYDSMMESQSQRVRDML

Kd: > 500 µM
SMILES: CC(=O)N[C@H]1[C@H](O[C@H]2[C@H](O)[C@@H](CO)O[C@@H](O[C@H]3[C@H](O)[C@H](O)[C@@H](Oc4ccc5c(C)cc(=O)oc5c4)O[C@@H]3COP(=O)(O)O)[C@@H]2NC(C)=O)O[C@H](CO)[C@H](O)[C@@H]1O [GGMp-MU]
